Experiments:
Assay in all cases: KiNativ kinome profiling in PANC-1 lysate
Type in all cases: binding
MAST3 = target: T1, MAST3 (Homo sapiens, UniProt O60307); conditions: Lys2
T1 construct: endogenous in cells; host or cells: PANC-1
Procedure, shortened: (§1)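 PANC-1 lysates were incubated with 5 μM inhibitor or DMSO, then labeled with a desthiobiotin-ATP acyl-phosphate probe that biotinylates conserved kinase lysines. Tryptic peptides were streptavidin-enriched and quantified by LC-MS/MS, reported as % change in MS signal from duplicate treated and duplicate control samples.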

Erk5 = target: T2, Erk5 (Homo sapiens, UniProt Q13164); conditions: Lys2
T2 construct: endogenous in cells; host or cells: PANC-1 lysate
Procedure, shortened: as §1

RSK3 domain1 = target: T3, RSK3 domain1 (Homo sapiens, UniProt Q15349); conditions: Lys2
T3 construct: endogenous in cells; host or cells: PANC-1 cell lysate
Procedure, shortened: as §1

CCRK = target: T4, CCRK (Homo sapiens, UniProt Q8IZL9); conditions: Lys2
T4 construct: endogenous in cells; host or cells: PANC-1 cell lysate
Procedure, shortened: as §1

CK2a1 = target: T5, CK2a1 (Homo sapiens, UniProt P68400); conditions: Protein Kinase Domain
T5 construct: endogenous in cells; host or cells: PANC-1 cell lysate
Procedure, shortened: as §1

PFTAIRE2 = target: T6, PFTAIRE2 (Homo sapiens, UniProt Q96Q40); conditions: Lys2
T6 construct: endogenous in cells; host or cells: PANC-1 cell lysate
Procedure, shortened: as §1

MAP4K5 = target: T7, MAP4K5 (Homo sapiens, UniProt Q9Y4K4)
T7 construct: endogenous in cells; host or cells: PANC-1 cell lysate
Procedure, shortened: as §1

NLK = target: T8, NLK (Homo sapiens, UniProt Q9UBE8); conditions: Lys2
T8 construct: endogenous in cells; host or cells: PANC-1 cell lysate
Procedure, shortened: as §1

PKCa, PKCg = conditions: 5 µM; Other; NLIPMDPNGLSDPYVKLK
Procedure, shortened: as §1

RON = target: T9, RON (Homo sapiens, UniProt Q04912); conditions: Lys1
T9 construct: endogenous in cells; host or cells: PANC-1 cell lysate
Procedure, shortened: as §1

JNK1, JNK2, JNK3 = conditions: 5 µM; Lys2; DLKPSNIVVK
Procedure, shortened: as §1

PCTAIRE1, PCTAIRE3 = conditions: 5 µM; Lys2; DLKPQNLLINER
Procedure, shortened: as §1

MAPKAPK3 = target: T10, MAPKAPK3 (Homo sapiens, UniProt Q16644)
T10 construct: endogenous in cells; host or cells: PANC-1 cell lysate
Procedure, shortened: as §1

PLK1 = target: T11, PLK1 (Homo sapiens, UniProt P53350)
T11 construct: endogenous in cells; host or cells: PANC-1 cell lysate
Procedure, shortened: as §1

FER = target: T12, FER (Homo sapiens, UniProt P16591)
T12 construct: endogenous in cells; host or cells: PANC-1 lysate
Procedure, shortened: as §1

TLK1 = target: T13, TLK1 (Homo sapiens, UniProt Q9UKI8); conditions: Lys2
T13 construct: endogenous in cells; host or cells: PANC-1 cell lysate
Procedure, shortened: as §1

SGK3 = target: T14, SGK3 (Homo sapiens, UniProt Q96BR1); conditions: Lys1
T14 construct: endogenous in cells; host or cells: PANC-1 cell lysate
Procedure, shortened: as §1

MLK4 = target: T15, MLK4 (Homo sapiens, UniProt Q5TCX8); conditions: Lys2
T15 construct: endogenous in cells; host or cells: PANC-1
Procedure, shortened: as §1

ILK = target: T16, ILK (Homo sapiens, UniProt Q13418)
T16 construct: we opted to conduct a kinome screen (KiNativ) in PANC-1 cell lysates; endogenous in cells; host or cells: PANC-1 cell lysate
Procedure, shortened: as §1

STK33 = target: T17, STK33 (Homo sapiens, UniProt Q9BYT3); conditions: Lys2
T17 construct: endogenous in cells; host or cells: PANC-1 cell lysate
Procedure, shortened: as §1

[1] = system: MSK1 domain1, MSK2 domain1; conditions: 5 µM; ATP Loop; VLGTGAYGKVFLVR
Procedure, shortened: as §1

PIP4K2A = target: T18, PIP4K2A (Homo sapiens, UniProt P48426); conditions: ATP
T18 construct: endogenous in cells; host or cells: PANC-1 cell lysate
Procedure, shortened: as §1

MARK2 = target: T19, MARK2 (Homo sapiens, UniProt Q7KZI7); conditions: Lys1
T19 construct: endogenous in cells; host or cells: PANC-1 cell lysate
Procedure, shortened: as §1

MAP2K1 = target: T20, MAP2K1 (Homo sapiens, UniProt Q02750); conditions: Lys2
T20 construct: endogenous in cells; host or cells: PANC-1 cell lysate
Procedure, shortened: as §1

T18 sequence (P48426 whole entry): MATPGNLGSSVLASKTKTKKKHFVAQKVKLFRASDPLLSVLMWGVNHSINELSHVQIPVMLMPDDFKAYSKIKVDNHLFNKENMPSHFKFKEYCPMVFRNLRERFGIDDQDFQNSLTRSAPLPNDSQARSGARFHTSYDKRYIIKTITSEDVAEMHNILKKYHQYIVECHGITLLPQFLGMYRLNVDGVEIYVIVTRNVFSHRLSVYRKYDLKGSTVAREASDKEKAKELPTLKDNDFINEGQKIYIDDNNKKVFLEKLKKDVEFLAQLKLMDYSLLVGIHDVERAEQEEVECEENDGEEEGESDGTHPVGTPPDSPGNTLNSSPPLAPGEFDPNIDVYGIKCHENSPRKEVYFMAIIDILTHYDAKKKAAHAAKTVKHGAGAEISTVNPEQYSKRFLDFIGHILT
T10 sequence (Q16644 whole entry): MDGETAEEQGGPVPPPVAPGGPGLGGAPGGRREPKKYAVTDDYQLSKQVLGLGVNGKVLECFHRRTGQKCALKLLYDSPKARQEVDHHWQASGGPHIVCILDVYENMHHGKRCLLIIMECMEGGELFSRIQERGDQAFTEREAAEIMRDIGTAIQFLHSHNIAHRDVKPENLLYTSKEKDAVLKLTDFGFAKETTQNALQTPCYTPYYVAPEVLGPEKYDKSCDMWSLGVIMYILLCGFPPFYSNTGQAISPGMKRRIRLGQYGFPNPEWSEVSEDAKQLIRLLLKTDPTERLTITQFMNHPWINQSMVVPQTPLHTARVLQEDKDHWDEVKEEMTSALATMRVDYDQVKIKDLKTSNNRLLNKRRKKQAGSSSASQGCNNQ
T16 sequence (Q13418 whole entry): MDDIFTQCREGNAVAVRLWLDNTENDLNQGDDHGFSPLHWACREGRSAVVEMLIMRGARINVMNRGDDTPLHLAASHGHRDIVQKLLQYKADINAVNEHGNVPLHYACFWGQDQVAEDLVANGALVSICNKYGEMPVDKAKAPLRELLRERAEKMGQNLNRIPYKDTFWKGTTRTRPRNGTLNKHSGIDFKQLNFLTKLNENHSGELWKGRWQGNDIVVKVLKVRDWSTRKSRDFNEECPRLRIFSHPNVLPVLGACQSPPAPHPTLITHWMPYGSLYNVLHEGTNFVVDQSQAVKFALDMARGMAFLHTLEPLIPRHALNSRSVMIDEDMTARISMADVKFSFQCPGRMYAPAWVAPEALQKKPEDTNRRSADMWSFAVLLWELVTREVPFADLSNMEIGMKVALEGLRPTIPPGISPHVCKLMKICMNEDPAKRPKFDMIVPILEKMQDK
T7 sequence (Q9Y4K4 whole entry): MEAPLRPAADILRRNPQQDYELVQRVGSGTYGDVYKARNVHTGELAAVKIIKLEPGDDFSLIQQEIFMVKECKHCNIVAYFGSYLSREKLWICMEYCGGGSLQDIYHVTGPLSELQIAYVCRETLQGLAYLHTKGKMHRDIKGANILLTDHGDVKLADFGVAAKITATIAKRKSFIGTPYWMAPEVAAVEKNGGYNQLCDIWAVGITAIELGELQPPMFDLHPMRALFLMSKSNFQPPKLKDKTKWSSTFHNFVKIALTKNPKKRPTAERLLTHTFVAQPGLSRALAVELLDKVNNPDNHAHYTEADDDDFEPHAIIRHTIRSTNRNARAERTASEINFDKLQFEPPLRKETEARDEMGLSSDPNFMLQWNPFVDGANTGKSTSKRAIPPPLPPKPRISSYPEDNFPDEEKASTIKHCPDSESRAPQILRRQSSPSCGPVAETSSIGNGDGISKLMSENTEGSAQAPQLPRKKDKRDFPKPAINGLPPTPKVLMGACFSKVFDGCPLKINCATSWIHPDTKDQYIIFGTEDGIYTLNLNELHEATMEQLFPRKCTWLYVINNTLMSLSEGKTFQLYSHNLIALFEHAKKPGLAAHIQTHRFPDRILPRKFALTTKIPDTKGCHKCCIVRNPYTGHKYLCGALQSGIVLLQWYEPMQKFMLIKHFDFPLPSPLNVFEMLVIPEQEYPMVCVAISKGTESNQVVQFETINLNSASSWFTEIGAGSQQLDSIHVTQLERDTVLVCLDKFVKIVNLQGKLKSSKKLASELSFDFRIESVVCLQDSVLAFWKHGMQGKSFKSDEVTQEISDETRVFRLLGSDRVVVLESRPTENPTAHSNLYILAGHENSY
T11 sequence (P53350 whole entry): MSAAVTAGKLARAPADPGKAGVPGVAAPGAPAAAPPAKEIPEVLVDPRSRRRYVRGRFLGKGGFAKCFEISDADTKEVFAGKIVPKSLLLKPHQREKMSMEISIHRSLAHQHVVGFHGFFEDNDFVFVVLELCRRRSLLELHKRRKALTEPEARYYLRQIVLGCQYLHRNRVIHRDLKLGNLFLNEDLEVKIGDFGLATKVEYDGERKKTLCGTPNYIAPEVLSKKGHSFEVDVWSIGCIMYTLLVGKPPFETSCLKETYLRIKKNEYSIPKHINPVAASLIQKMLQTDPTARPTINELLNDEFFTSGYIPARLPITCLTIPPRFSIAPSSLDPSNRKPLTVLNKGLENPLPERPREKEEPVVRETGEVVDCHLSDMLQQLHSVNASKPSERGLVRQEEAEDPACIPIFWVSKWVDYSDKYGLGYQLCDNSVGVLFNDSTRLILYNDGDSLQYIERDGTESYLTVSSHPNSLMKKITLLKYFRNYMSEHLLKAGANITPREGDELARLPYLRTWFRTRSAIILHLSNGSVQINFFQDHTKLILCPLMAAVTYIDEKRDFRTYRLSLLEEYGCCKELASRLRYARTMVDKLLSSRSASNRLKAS
T12 sequence (P16591 whole entry): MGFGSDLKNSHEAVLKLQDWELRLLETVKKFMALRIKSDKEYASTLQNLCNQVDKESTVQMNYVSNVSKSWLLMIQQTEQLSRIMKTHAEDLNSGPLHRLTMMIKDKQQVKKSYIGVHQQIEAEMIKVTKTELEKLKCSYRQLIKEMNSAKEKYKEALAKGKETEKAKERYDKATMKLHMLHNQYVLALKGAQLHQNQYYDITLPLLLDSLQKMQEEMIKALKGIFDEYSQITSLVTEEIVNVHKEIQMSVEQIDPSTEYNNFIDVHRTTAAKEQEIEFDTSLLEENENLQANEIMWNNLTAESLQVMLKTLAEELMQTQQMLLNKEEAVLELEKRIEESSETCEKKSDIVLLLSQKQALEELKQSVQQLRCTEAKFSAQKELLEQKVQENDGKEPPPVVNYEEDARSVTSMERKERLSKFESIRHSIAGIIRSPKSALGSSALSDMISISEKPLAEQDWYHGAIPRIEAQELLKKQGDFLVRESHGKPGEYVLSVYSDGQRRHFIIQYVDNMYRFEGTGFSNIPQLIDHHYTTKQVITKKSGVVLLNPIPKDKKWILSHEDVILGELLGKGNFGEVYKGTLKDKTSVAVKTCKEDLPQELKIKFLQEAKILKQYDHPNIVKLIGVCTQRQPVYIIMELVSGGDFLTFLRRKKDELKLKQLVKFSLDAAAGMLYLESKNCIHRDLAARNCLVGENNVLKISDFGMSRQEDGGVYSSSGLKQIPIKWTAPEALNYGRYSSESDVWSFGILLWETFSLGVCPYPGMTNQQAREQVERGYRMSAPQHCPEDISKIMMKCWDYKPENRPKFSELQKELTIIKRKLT
T19 sequence (Q7KZI7 whole entry): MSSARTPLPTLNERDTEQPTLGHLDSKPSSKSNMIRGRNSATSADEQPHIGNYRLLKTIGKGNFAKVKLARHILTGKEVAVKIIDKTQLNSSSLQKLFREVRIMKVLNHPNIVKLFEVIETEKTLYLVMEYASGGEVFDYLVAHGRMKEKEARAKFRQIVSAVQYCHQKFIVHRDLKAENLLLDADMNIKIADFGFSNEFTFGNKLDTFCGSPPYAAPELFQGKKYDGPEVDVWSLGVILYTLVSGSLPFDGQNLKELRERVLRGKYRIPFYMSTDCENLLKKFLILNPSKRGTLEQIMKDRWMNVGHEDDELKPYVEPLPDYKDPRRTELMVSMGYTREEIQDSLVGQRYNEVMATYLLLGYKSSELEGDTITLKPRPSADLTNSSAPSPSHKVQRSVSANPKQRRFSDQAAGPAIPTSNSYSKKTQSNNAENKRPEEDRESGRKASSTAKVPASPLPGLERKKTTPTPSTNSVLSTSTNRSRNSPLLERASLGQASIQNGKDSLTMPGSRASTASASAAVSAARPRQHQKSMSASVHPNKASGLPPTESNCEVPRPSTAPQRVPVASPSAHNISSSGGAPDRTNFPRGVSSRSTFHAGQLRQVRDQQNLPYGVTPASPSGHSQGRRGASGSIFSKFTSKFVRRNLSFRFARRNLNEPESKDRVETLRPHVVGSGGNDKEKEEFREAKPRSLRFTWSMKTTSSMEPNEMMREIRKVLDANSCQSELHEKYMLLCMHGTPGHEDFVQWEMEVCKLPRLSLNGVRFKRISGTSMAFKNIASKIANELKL
T20 sequence (Q02750 whole entry): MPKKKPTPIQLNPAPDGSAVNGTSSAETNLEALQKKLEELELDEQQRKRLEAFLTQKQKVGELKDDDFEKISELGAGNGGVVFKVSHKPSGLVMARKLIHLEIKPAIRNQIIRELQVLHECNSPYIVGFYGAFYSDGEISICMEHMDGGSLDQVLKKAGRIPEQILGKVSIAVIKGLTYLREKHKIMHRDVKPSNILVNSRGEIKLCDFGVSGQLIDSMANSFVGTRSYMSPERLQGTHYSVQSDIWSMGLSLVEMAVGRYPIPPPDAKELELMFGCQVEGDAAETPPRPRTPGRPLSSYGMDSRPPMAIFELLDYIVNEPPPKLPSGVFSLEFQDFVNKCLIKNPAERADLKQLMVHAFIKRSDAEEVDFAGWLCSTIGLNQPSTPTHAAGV

In the case of `Cn1cc(-c2cnc3ccc(NC(=O)Nc4ccc(F)c(C(F)(F)F)c4)cc3n2)cn1` [51-106, 1-(4-Fluoro-3-(trifluoromethyl)phenyl)-3-(3-(1-methyl-1H-pyrazol-4-yl)quinoxalin-6-yl)urea], the inhibition at 5 µM (MAST3) is reported as ≤ 0%, the inhibition at 5 µM (Erk5) is reported as 11.6% and the inhibition at 5 µM (RSK3 domain1) is reported as ≤ 0%. The inhibition at 5 µM (CCRK) was 4.5%, the inhibition at 5 µM (CK2a1) was ≤ 0% and the inhibition at 5 µM (PFTAIRE2) was ≤ 0%. For the same compound, the inhibition at 5 µM (MAP4K5; Lys1, NVHTGELAAVKIIK) was 6%, the inhibition at 5 µM (MAP4K5; Lys2, DIKGANILLTDHGDVK) was ≤ 0% and the inhibition at 5 µM (NLK) was 5.9%. For the same compound, the “% Inhibition” value (PKCa, PKCg) was “NB (NB = No Binding (≤ 0))”, the inhibition at 5 µM (RON) was ≤ 0% and the “% Inhibition” value (JNK1, JNK2, JNK3) was “NB (NB = No Binding (≤ 0))”. For the same compound, the “% Inhibition” value (PCTAIRE1, PCTAIRE3) was 4.8%, the “% Inhibition” value (MAPKAPK3; 5 µM, Lys1, CALKLLYDSPK) was “NB (NB = No Binding (≤ 0))” and the inhibition at 5 µM (MAPKAPK3; ATP Loop, […]) was ≤ 0%. The inhibition at 5 µM (PLK1; Lys1, CFEISDADTKEVFAGKIVPK) was ≤ 0%, the inhibition at 5 µM (PLK1; Lys2, DLKLGNLFLNEDLEVK) was 10.9% and the “% Inhibition” value (FER; 5 µM, ATP Loop, QEDGGVYSSSGLKQIPIK) was “NB (NB = No Binding (≤ 0))”. For the same compound, the inhibition at 5 µM (FER; Lys1, […]) was ≤ 0%, the inhibition at 5 µM (TLK1) was 6.2% and the inhibition at 5 µM (SGK3) was ≤ 0%. For the same compound, the inhibition at 5 µM (MLK4) was ≤ 0%, the “% Inhibition” value (ILK; 5 µM, Protein Kinase Domain, ISMADVKFSFQCPGR) was “NB (NB = No Binding (≤ 0))” and the inhibition at 5 µM (ILK; Lys1, […]) was ≤ 0%. For the same compound, the inhibition at 5 µM (STK33) was 26.6%, the “% Inhibition” value [1] was 0.1% and the inhibition at 5 µM (PIP4K2A; AKELPTLKDNDFINEGQK) was ≤ 0%. For the same compound, the inhibition at 5 µM (PIP4K2A; YIIKTITSEDVAEMHNILK) was 4.5%, the inhibition at 5 µM (MARK2) was 5% and the inhibition at 5 µM (MAP2K1) was 11%.

Source: publication PMC12073402, “A Selective MAP3K1 Inhibitor Facilitates Discovery of NPM1 as a Member of the Network” (Molecules, 2025)
